Measurements published in US9664696B1, “Compounds for determining the presence of hydrogen sulfide and methods of use” (University of Oregon, priority 2013, dated 2017).

What was measured:
[1] = pH 7.4
[2] = UV-vis titration of 100 with NaSH, absorbance of products; assay type: physicochemical; design: ε413: unit not given here; details: PIPES buffer pH 7.4
[3] = pH titration of compound 42 monitored by UV-vis; assay type: physicochemical; details: aqueous 100 mM KCl / 10 mM KOH solution titrated with HCl; absorbance at 534 nm as a function of pH; read-out: apparent pKa of the thiol
Description: A 15 mL solution of compound 42 (111 μM) in 100 mM KCl and 10 mM KOH Millipore water was prepared. The pH of the solution was adjusted with 10 M, 5 M, 1 M, 50 mM, or 1 mM solutions of HCl and the pH recorded. At each pH value, an aliquot of the solution was transferred to a cuvette and the UV-vis spectrum was measured. After measurement, the aliquot was returned to the stock solution and the pH was adjusted to the next point in the titration.

[4] = Colorimetric selectivity studies, H2S versus amino acids and RSONS
[5] = Air sensitivity of the chemiluminescent compound precursors; assay type: physicochemical
[6] = 1H NMR titration, 1:1 binding model, TBA-Ser; details: 10.0 mM probe, 0-200 mM amino acid, DMSO-d6, 25.0° C., average of three titrations
Description: (§1) A septum-sealed NMR tube was charged with either chemiluminescent compound precursor 200 or 202 (10 mM in 300 μL of DMSO-d6) and aliquots of a DMSO-d6 solution containing 200 mM amino acid mixed with 10 mM of the compound were added using a syringe. The chemical shifts of the aromatic proton resonances were tracked and the data were fitted to a 1:1 binding model.
In addition to computational evidence for the hydrogen-bonding hypothesis, NMR titrations of chemiluminescent compound precursors 200 and 202 were also performed with different amino acids to further validate the model with solution data. Serine was used as a model amino acid because cysteine quickly reduces chemiluminescent compound precursor 200 under typical experimental conditions. […] Similarly, to model the protonation state of the amino acids in water, and also to ensure complete solubility through the course of the titration, the tetrabutylammonium salts of each amino acid were prepared. By titrating tetrabutylammonium serine (TBA-Ser) into independent solutions of chemiluminescent compound precursors 200 and 202, striking changes in the aromatic region of the NMR spectra were observed, consistent with amino acid binding to the hydrazide moiety (FIGS. 34A-34C). […]

[7] = Chemiluminescence selectivity for H2S over reactive sulfur, oxygen, and nitrogen species (RSONS); details: for turn on for H2S: chemiluminescence, H2S versus blank
Description: (§2) In a septum-sealed cuvette, a solution of the compound (50 μM) and the desired reactive species was incubated in PIPES buffer (50 mM PIPES, 100 mM KCl, pH 7.4) for 60 minutes at 37.0° C. After incubation, 40 μL of 6 M NaOH was added to increase the pH to an optimal level for luminol chemiluminescence. After pH adjustment, 10 μL of 10 U/mL Horseradish Peroxidase (HRP) with 0.2 μM p-iodophenol was added. A background reading was acquired for 60 seconds, after which 50 μL of H2O2 (35%) was added. The sample luminosity at 425 nm was integrated for 300 s after H2O2 addition. The data reported are the average of at least three independent experiments.
The response of chemiluminescent compound precursor 200 and chemiluminescent compound precursor 202 to biologically-relevant reactive sulfur, oxygen, and nitrogen species (RSONS) was also determined. The selectivity of chemiluminescent compound precursor 200 for H2S was determined by adding 33 equivalents of cysteine (Cys), homocysteine (Hcy), N-acetylcysteine (NAC), reduced glutathione (GSH), thiosulfate (S2O3^2−), sulfate (SO4^2−), nitric oxide (NO), nitroxyl (HNO), and nitrite (NO2^−) (FIGS. 10 and 11). […]

[8] = 1H NMR titration, 1:1 binding model, TBA-Val; details: 10.0 mM probe, 0-200 mM amino acid, DMSO-d6, 25.0° C., average of three titrations
Description: as §1
^1H NMR titrations with tetrabutylammonium valine (TBA-Val) were also performed as a second model system in which the side chain of the amino acid cannot hydrogen bond to the azide. […] The binding affinities measured for TBA-Val are larger than for TBA-Ser (Table 9), which is consistent with the reduced internal competition for intramolecular hydrogen bonding sites in valine. Based on these titration data, and the lower hydrogen bonding ability of thiols by comparison to alcohols, binding affinity of cysteine for chemiluminescent compound precursor 200 and 202 was expected to be between the measured values for serine and valine. Under the general experimental conditions used to measure the selectivity date, a 10^3-10^4 M^−1 binding affinity between Cys/chemiluminescent compound precursor 200 would result in significant generation of the Cys/chemiluminescent compound precursor 200 adduct, which is consistent with the observed erosion in selectivity. […]

[9] = Chemiluminescent H2S detection limit (HRP/H2O2/p-iodophenol); details: for chemiluminescent response after H2S-mediated reduction: followed by treatment with HRP and H2O2; for chemiluminescence in the absence of H2S: treatment with HRP and H2O2, by comparison to luminol or isoluminol
Description: as §2
In this particular embodiment, the use of a compound for a chemiluminescent testing method is disclosed.
Following the H2S-derived chemiluminescent response of both chemiluminescent compound precursor 200 and chemiluminescent compound precursor 202, the detection limit of each chemiluminescent compound precursor for H2S was determined. After incubating each chemiluminescent compound precursor for 1 hour for different H2S concentrations, the chemiluminescent response was measured after treatment with H2O2/HRP using p-iodophenol as an enhancer. […] Based on the concentration-dependent H2S response and the instrumental background measurements, the H2S detection limit (3σ) of chemiluminescent compound precursor 200 and chemiluminescent compound precursor 202 was determined to be 0.7±0.3 μM and 4.6±2.0 μM, respectively. Although the total brightness of chemiluminescent compound precursor 202 was lower than that of compound 200, both these detection limits were below the reported range of H2S concentrations (20 μM-100 μM) found in mammalian blood.

C6 cells = experiment: Detection of endogenously produced H2S in C6 cell lysates; assay type: cell-based
Description: (§3) In a septum sealed cuvette, the desired reactive species were incubated in PIPES buffer (50 mM PIPES, 100 mM KCl, pH 7.4) at 37.0° C. for 48 hours. After initial incubation, 15 μL of 10 mM chemiluminescent compound precursor 202 in DMSO was added, and allowed to react for 60 min. After incubation, 40 μL of 6 M NaOH was added to increase the pH to an optimal level for luminol chemiluminescence. After pH adjustment, 10 μL of 10 U/mL Horse-radish Peroxidase (HRP) with 0.2 μM p-iodophenol was added. A background reading was acquired for 60 s, after which 50 μL of H2O2 (35%) was added. The sample luminosity at 425 nm was integrated for 40 s after H2O2 addition. The data reported are the average of at least three independent experiments.
C6 cells were obtained from ATCC and cultured in Dulbecco's Modified Eagle Medium (DMEM, Cellgro, MediaTek, Inc.) supplemented with 10% fetal bovine serum (FBS, HyClone), and 1% penicillin/streptomycin. Cells were passed and plated into T-75 flasks containing 10 mL of DMEM, and incubated at 37° C. with 5% CO2. For luminescence studies, the cells were washed with 1× phosphate buffered saline (PBS), trypsinized with 5 mL of Trypsin, and then centrifuged to form a cell pellet. The cell pellet was resuspended in 5 mL of 1×PBS and the cells were counted using a Bio RAD TC20 automated cell counter. Cells were centrifuged at 1,000 RPM for 5 minutes at room temperature, placed on ice and lysed using 100 μL of RIPA buffer (pH 7.5 10 mM Tris-HCl, 150 mM NaCl, 1.0% Nonidet P-40, 0.1% SDS, 0.1% sodium deoxycholate) containing protease inhibitor (PhosSTOP, Roche) for every 2×10^6 cells in the pellet. Luminescence measurements on cell lysates were made using 100 μL of lysate solution (2×10^6 cells per experiment) under ambient atmosphere by following the general procedure for enzymatically produced H2S outlined above.
The ability of chemiluminescent compound precursor 202 to detect and quantify endogenously-produced H2S in C6 cells was determined.

[10] = biological target: cystathionine γ-lyase (CSE) (Homo sapiens, UniProt P32929); experiment: Detection of enzymatically produced H2S from isolated CSE; assay type: biochemical
cystathionine γ-lyase (CSE), sequence (P32929 whole entry, species assumed): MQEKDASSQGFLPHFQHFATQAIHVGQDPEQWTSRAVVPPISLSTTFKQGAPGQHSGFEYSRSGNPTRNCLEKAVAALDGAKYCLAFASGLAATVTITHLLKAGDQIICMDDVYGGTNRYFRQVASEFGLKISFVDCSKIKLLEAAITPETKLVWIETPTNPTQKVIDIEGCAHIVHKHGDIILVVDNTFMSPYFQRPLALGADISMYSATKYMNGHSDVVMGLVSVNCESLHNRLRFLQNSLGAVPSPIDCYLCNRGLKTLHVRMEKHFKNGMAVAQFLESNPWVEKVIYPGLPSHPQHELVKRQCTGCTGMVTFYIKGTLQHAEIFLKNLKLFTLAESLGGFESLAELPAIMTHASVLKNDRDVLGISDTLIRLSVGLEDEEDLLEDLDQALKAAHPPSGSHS
Description: as §3
CSE is a PLP-dependent enzyme that converts Hcy or Cys to H2S and can be inhibited by β-cyano-L-alanine (BCA).

[11] = 30 equivalents of H2S then added, 45 min
[12] = Reactant 2-mercaptoethanol (2-ME)
[13] = Reactant H2S, 33 equivalents, 50 μM compound, 60 min, 37.0° C., pH 7.4

Compound | air sensitivity [5] | Binding Affinities [6] [M⁻¹] | Normalized Luminescence (CL/CL0) [7, 12] | Normalized Luminescence (CL/CL0) ([7]; Reactant Cys) | Normalized Luminescence (CL/CL0) ([7]; Reactant GSH) | Normalized Luminescence (CL/CL0) [7, 13] | Normalized Luminescence (CL/CL0) ([7]; Reactant HNO) | Normalized Luminescence (CL/CL0) ([7]; Reactant Hcy) | Normalized Luminescence (CL/CL0) ([7]; Reactant NAC) | Normalized Luminescence (CL/CL0) ([7]; Reactant NO2) | Normalized Luminescence (CL/CL0) ([7]; Reactant ONOO^−) | Normalized Luminescence (CL/CL0) ([7]; Reactant S2O^2−) | Normalized Luminescence (CL/CL0) ([7]; Reactant SNAP (NO)) | Normalized Luminescence (CL/CL0) ([7]; Reactant SO4^2−) | turn on for H2S [7] [fold] | Binding Affinities [8] [M⁻¹] | chemiluminescent response after H2S-mediated reduction [9] | chemiluminescence in the absence of H2S [9] | further results
Cc1cc(=O)oc2cc(N=[N+]=[N-])ccc12 [C-7Az, 7-azido-4-methylcoumarin] |  |  |  |  |  |  |  |  |  |  |  |  |  |  |  |  |  |  | photostability under continuous exposure [1]: probe photoactivation
O=[N+]([O-])c1ccc(Sc2ccc([N+](=O)[O-])c3nonc23)c2nonc12 [compound 40, bis(7-Nitrobenzo[c][1,2,5]oxadiazol-4-yl)sulfane] |  |  |  |  |  |  |  |  |  |  |  |  |  |  |  |  |  |  | ε413 ([2]; absorbance at 413 nm): 11,700±100
O=[N+]([O-])c1ccc(S)c2nonc12 [compound 42, 7-Nitrobenzo[c][1,2,5]oxadiazole-4-thiol] |  |  |  |  |  |  |  |  |  |  |  |  |  |  |  |  |  |  | pKa [3]: 2.6; ε534 ([2]; λmax 534 nm): 19,000±600 M^−1 cm^−1
O=[N+]([O-])c1ccc(Sc2ccc([N+](=O)[O-])c3nonc23)cc1 [compound 116, 4-Nitro-7-(4-nitrophenylthio)benzo[c][1,2,5]oxadiazole] |  |  |  |  |  |  |  |  |  |  |  |  |  |  |  |  |  |  | absorbance peak at 534 nm after initial incubation ([4]; 3 μM compound, 10 equivalents of H2S, glycine, serine, tyrosine, lysine, glutathione, N-acetyl-L-cysteine): only the H2S samples showed the characteristic absorbance peak at 534 nm; H2S response after incubation of GSH and N-acetylcysteine [4, 11]: somewhat eroded; colorimetric response to H2S after incubation with biological nucleophiles [4, 11]: robust colorimetric response to H2S
[N-]=[N+]=Nc1cccc2c(=O)[nH][nH]c(=O)c12 [compound 200, 3-Azidophthalhydrazide] | not air-sensitive | 380 ± 80 | 6.6 ± 3.2 | 81 ± 5 | 94 ± 12 | 128 ± 16 | 9.1 ± 0.2 | 57 ± 3 | 37 ± 19 | 0.9 ± 0.2 | 0.6 ± 0.2 | 5.9 ± 1.1 | 0.05 ± 0.01 | 0.8 ± 0.3 | 128 | 3640 ± 270 | robust chemiluminescent response | negligible chemiluminescence | 
[N-]=[N+]=Nc1ccc2c(=O)[nH][nH]c(=O)c2c1 [compound 202, 4-Azidophthalhydrazide] | not air-sensitive | 260 ± 60 | 1.7 ± 0.08 | 1.5 ± 0.03 | 3.7 ± 0.9 | 45 ± 3 | 3.3 ± 0.2 | 3.3 ± 0.5 | 3.3 ± 0.4 | 3.2 ± 0.6 | 4.0 ± 0.2 | 2.2 ± 0.6 | 1.5 ± 0.5 | 1.5 ± 0.3 | 45 | 3780 ± 370 | robust chemiluminescent response | negligible chemiluminescence | Normalized Luminescence (CL/CL0) ([7]; Reactant Toluenethiol (TolSH)): 1.9 ± 0.4; luminescent response in C6 cell lysates lacking CSE substrates (C6 cells): minimal luminescent response; luminescence in C6 cell lysates with Hcy as CSE substrate (C6 cells; p<0.001 by comparison to lysates lacking substrate): significantly increased luminescence; luminescent response in C6 cell lysates with Hcy and BCA (C6 cells; p<0.005): abrogated the luminescent response; chemiluminescent response with CSE in the absence of substrate [10]: no response; chemiluminescent response with CSE and Hcy substrate ([10]; by comparison to CSE alone (p<0.001) or CSE and Hcy inhibited with BCA (p<0.005)): robust response; chemiluminescent response to Hcy, BCA, pyruvate (Pyr) and NH3 ([10]; control experiments without CSE, p<0.005): negligible
